These results are taken from patent US8765730B2 (Hoffmann-La Roche Inc, priority 2010, dated 2014).

The assay has as its target T1, human GPBAR1 receptor (Homo sapiens, UniProt Q8TDU6).
T1 construct: expressed in transfected cells
T1 sequence (Q8TDU6 1-330): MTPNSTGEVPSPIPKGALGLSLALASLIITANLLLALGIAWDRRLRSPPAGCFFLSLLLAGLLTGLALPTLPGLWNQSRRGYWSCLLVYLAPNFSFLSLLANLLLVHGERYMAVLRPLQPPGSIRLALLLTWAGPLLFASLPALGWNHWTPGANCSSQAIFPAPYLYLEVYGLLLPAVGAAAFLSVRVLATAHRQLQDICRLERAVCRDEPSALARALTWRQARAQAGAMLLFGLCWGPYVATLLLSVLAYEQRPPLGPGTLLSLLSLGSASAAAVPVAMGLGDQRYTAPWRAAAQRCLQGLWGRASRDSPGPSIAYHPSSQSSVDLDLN
Description: functional cAMP assay in CHO-dhfr(minus) cells expressing human GPBAR1 receptors. It counts as cell-based. Conditions: human EC50, functional cAMP assay, 30 min at 30° C. The essentials: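 Agonist cAMP read-out: stable GPBAR1 CHO-dhfr− clone, 30 min compound exposure at 30° C following 30 min IBMX (1 mM) preincubation in Krebs Ringer bicarbonate. Time-resolved energy-transfer detection gives EC50; parental CHO cells serve as counter-screen.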
On to `Cc1cc(/C(CC(c2ccc(-c3ccc(C(=O)O)c(Cl)c3)cc2)c2ccc(Cl)cc2F)=N/O)ccn1` (centres unmarked) [Example 451, 3-Chloro-4′-[1-(4-chloro-2-fluoro-phenyl)-3-[(E)-hydroxyimino]-3-(2-methyl-pyridin-4-yl)-propyl]-biphenyl-4-carboxylic acid], for which a half-maximal effect (EC50) was put at 0.024 µM.

Molecule `Cc1cc(/C(C[C@H](c2ccc(-c3ncco3)cc2)c2ccccc2C)=N/O)ccn1` [Example 423] registered an EC50 of 0.002 µM.

In turn, `Cc1ccccc1C(CC(=NO)c1ccncc1)c1ccc(-c2cccc(S(C)(=O)=O)c2)cc1` (racemic) [Example 32, 3-(3′-Methanesulfonyl-biphenyl-4-yl)-1-pyridin-4-yl-3-o-tolyl-propan-1-one oxime] gave an EC50 of 0.255 µM.

Turning to `Cc1cc(Cl)ccc1C(C/C(=N\O)c1ccc(=O)n(CCC(N)=O)c1)c1ccc(S(C)(=O)=O)cc1` (centres unmarked) [Example 344, (E)-3-(5-(3-(4-Chloro-2-methylphenyl)-1-(hydroxyimino)-3-(4-(methylsulfonyl)phenyl)-propyl)-2-oxopyridin-1(2H)-yl)propanamide], the EC50 stood at 0.186 µM.

On to `Cc1cc(/C(C[C@H](c2ccc([C@H]3CC[C@H](C(=O)O)CC3)cc2)c2ccc(Cl)cc2C)=N/O)ccn1` [Example 504, Trans-4-(4-((R,E)-1-(4-Chloro-2-methylphenyl)-3-(hydroxyimino)-3-(2-methylpyridin-4-yl)propyl)phenyl)cyclohexanecarboxylic acid], for which the EC50 amounted to 0.028 µM.

Take `Cn1cc(/C(CC(c2cccc(C(=O)N3CCOCC3)c2)c2ccc(Cl)cc2F)=N/O)ccc1=O` (centres unmarked) [Example 322, (E)-5-(3-(4-Chloro-2-fluorophenyl)-1-(hydroxyimino)-3-(3-(morpholine-4-carbonyl)phenyl)propyl)-1-methylpyridin-2(1H)-one]: a half-maximal response (EC50) required 3.96 µM.

Consider `Cc1cc(/C(C[C@@H](c2ccc(-c3ccc(C(=O)O)c(F)c3)cc2)c2ccc(Cl)cc2F)=N/O)ccn1` (single isomer, unassigned) [Example 449, 4′-[(+)-1-(4-Chloro-2-fluoro-phenyl)-3-[(E)-hydroxyimino]-3-(2-methyl-pyridin-4-yl)-propyl]-3-fluoro-biphenyl-4-carboxylic acid], for which the EC50 was 0.009 µM.

For the molecule `Cc1ccccc1C(C/C(=N\O)c1ccc(=O)n(C)c1)c1ccc(C(=O)NCCC(=O)O)cc1` (centres unmarked) [Example 214, 3-{4-[3-[(E)-Hydroxyimino]-3-(1-methyl-6-oxo-1,6-dihydro-pyridin-3-yl)-1-o-tolyl-propyl]-benzoylamino}-propionic acid], it took 1.22 µM to reach a half-maximal effect (EC50).

Molecule `Cc1cc(Cl)ccc1C(C/C(=N\O)c1ccc(=O)n(C)c1)c1ccc(OCCCC(=O)O)cc1` (centres unmarked) [Example 349, 4-{4-[1-(4-Chloro-2-methyl-phenyl)-3-[(E)-hydroxyimino]-3-(1-methyl-6-oxo-1,6-dihydro-pyridin-3-yl)-propyl]-phenoxy}-butyric acid] registered an EC50 of 0.267 µM.

Take `Cc1cc(/C(CC(c2ccc(C(=O)N3CCC(F)(F)CC3)cc2)c2ccc(F)cc2F)=N/O)ccn1` (centres unmarked) [Example 437, 3-(2,4-Difluoro-phenyl)-3-[4-(4,4-difluoro-piperidine-1-carbonyl)-phenyl]-1-(2-methyl-pyridin-4-yl)-propan-1-one oxime]: the EC50 turned out to be 0.075 µM.

For `Cc1ccccc1[C@@H](C/C(=N\O)c1ccc(=O)n(C)c1)c1ccc([C@H]2CC[C@@H](C(=O)O)CC2)cc1` [Example 489, cis-4-(4-((S,E)-3-(hydroxyimino)-3-(1-methyl-6-oxo-1,6-dihydropyridin-3-yl)-1-o-tolylpropyl)phenyl)cyclohexanecarboxylic acid], the midpoint of the response, the EC50, lay at 0.582 µM.

Molecule `CC(=O)N1CCC(c2ccc([C@@H](C/C(=N\O)c3ccnc(C)c3)c3ccc(Cl)cc3C)cc2)CC1` [Example 511, (R,E)-1-(4-(4-(1-(4-Chloro-2-methylphenyl)-3-(hydroxyimino)-3-(2-methylpyridin-4-yl)propyl)phenyl)piperidin-1-yl)ethanone] gave an EC50 of 0.036 µM.

The molecule `Cn1cc(/C(CC(c2ccc(=O)n(C)c2)c2ccccc2Cl)=N/O)ccc1=O` (centres unmarked) [Example 250, (E)-5,5′-(1-(2-Chlorophenyl)-3-(hydroxyimino)propane-1,3-diyl)bis(1-methylpyridin-2(1H)-one)] registered a concentration giving a half-maximal response (EC50) of 1.35 µM.

The molecule `Cn1cc(/C(CC(c2ccc(-c3ccc(C(=O)O)cc3)cc2)c2ccc(Cl)cc2F)=N/O)ccc1=O` (single isomer, unassigned; (+)) [Example 241, (+)-4′-[1-(4-Chloro-2-fluoro-phenyl)-3-[(E)-hydroxyimino]-3-(1-methyl-6-oxo-1,6-dihydro-pyridin-3-yl)-propyl]-biphenyl-4-carboxylic acid] displayed an EC50 of 0.17 µM.

Molecule `Cc1ccccc1C(C/C(=N\O)c1cc(Cl)ccc1Cl)c1ccc(Br)cc1` (single isomer, unassigned; (-)) [Example 51, (−)-(E)-3-(4-bromo-phenyl)-1-(2,5-dichloro-phenyl)-3-o-tolyl-propan-1-one oxime] displayed an EC50 of 0.933 µM.

In turn, `Cc1cc(/C(C[C@H](c2ccc(N3CCC(CO)CC3)cc2)c2ccccc2C)=N/O)ccn1` [Example 269, (E,R)-3-[4-(4-Hydroxymethyl-piperidin-1-yl)-phenyl]-1-(2-methyl-pyridin-4-yl)-3-o-tolyl-propan-1-one oxime] came in with an EC50 of 0.002 µM.

Turning to `Cc1ccccc1C(CC(=NO)c1ccc2ncccc2c1)c1ccc(Br)cc1` (racemic) [Example 125, 3-(4-Bromo-phenyl)-1-quinolin-6-yl-3-o-tolyl-propan-1-one oxime], a half-maximal response (EC50) required 2.21 µM.

The molecule `Cc1cc(Cl)ccc1C(C/C(=N\O)c1ccc(=O)n(C)c1)c1ccc(-c2ccc(C(=O)O)cc2)cc1` (centres unmarked) [Example 227, (E)-4′-(1-(4-Chloro-2-methylphenyl)-3-(hydroxyimino)-3-(1-methyl-6-oxo-1,6-dihydropyridin-3-yl)propyl)biphenyl-4-carboxylic acid] registered an EC50 of 0.055 µM.

Regarding `Cc1cc(C(CC(c2cccc(-c3ccc(S(C)(=O)=O)cc3)c2)c2ccccc2C)=NO)ccn1` (racemic) [Example 104, 3-(4′-Methanesulfonyl-biphenyl-3-yl)-1-(2-methyl-pyridin-4-yl)-3-o-tolyl-propan-1-one oxime], it took 0.578 µM to reach a half-maximal effect (EC50).

As to `CCOCCn1cc(/C(CC(c2ccc(S(C)(=O)=O)cc2)c2ccc(Cl)cc2C)=N/O)ccc1=O` (centres unmarked) [Example 340, (E)-5-(3-(4-Chloro-2-methylphenyl)-1-(hydroxyimino)-3-(4-(methylsulfonyl)phenyl)-propyl)-1-(2-ethoxyethyl)pyridin-2(1H)-one], a half-maximal response (EC50) required 0.221 µM.

Regarding `Cc1cc(C(CC(c2ccccc2)c2ccccc2)=NO)ccn1` (racemic) [Example 57, 1-(2-Methyl-pyridin-4-yl)-3,3-diphenyl-propan-1-one oxime], the EC50 is 0.073 µM.

Regarding `O/N=C(\CC(c1ccccc1)c1ccccc1)c1ccncc1` [Example 14, (E)-3,3-Diphenyl-1-pyridin-4-yl-propan-1-one oxime], the EC50 was determined as 0.052 µM.

Consider `COC(=O)CNC(=O)c1ccc(-c2ccc(C(C/C(=N\O)c3ccc(=O)n(C)c3)c3ccc(Cl)cc3C)cc2)cc1` (centres unmarked) [Example 228, (E)-methyl 2-(4′-(1-(4-chloro-2-methylphenyl)-3-(hydroxyimino)-3-(1-methyl-6-oxo-1,6-dihydropyridin-3-yl)propyl)biphenyl-4-ylcarboxamido)acetate], for which the EC50 stood at 0.018 µM.
